From ChEMBL document CHEMBL4732126, “Design, synthesis, and biodistribution studies of new analogues of marine alkaloids: Potent in vitro and in vivo fungicidal agents against Candida spp” (Eur J Med Chem, 2021)
Calls of active or inactive are those of the source.

Tests used:
[1] = tested on: Candida albicans; assay: Fungicidal activity against Candida albicans isolate 2 assessed as fungal killing incubated for 48 hrs followed by plating on SD agar plate; assay type: functional; conditions: read-out: MFC99.9
[2] = tested on: Candida albicans; assay: Fungicidal activity against Candida albicans isolate 11 assessed as fungal killing incubated for 48 hrs followed by plating on SD agar plate; assay type: functional; conditions: read-out: MFC99.9
[3] = tested on: Candida albicans; assay: Antifungal activity against Candida albicans isolate 2 assessed as reduction in fungal growth incubated for 48 hrs by broth microdilution method; assay type: functional
[4] = tested on: Candida albicans; assay: Antifungal activity against Candida albicans isolate 9 assessed as reduction in fungal growth incubated for 48 hrs by broth microdilution method; assay type: functional
[5] = tested on: Nakaseomyces glabratus; assay: Antifungal activity against Candida glabrata ATCC 2001 assessed as reduction in fungal growth incubated for 48 hrs by broth microdilution method; assay type: functional
[6] = tested on: Pichia kudriavzevii; assay: Fungicidal activity against Candida krusei ATCC 34135 assessed as fungal killing incubated for 48 hrs followed by plating on SD agar plate; assay type: functional; conditions: read-out: MFC99.9
[7] = tested on: Candida albicans; assay: Fungicidal activity against Candida albicans ATCC 10231 assessed as fungal killing incubated for 48 hrs followed by plating on SD agar plate; assay type: functional; conditions: read-out: MFC99.9
[8] = tested on: Candida albicans; assay: Antifungal activity against Candida albicans isolate 8 assessed as reduction in fungal growth incubated for 48 hrs by broth microdilution method; assay type: functional
[9] = tested on: Candida albicans; assay: Fungicidal activity against Candida albicans isolate 13 assessed as fungal killing incubated for 48 hrs followed by plating on SD agar plate; assay type: functional; conditions: read-out: MFC99.9
[10] = tested on: Candida albicans; assay: Fungicidal activity against Candida albicans ATCC 18804 assessed as fungal killing incubated for 48 hrs followed by plating on SD agar plate; assay type: functional; conditions: read-out: MFC99.9
[11] = tested on: Candida albicans; assay: Fungicidal activity against Candida albicans isolate 7 assessed as fungal killing incubated for 48 hrs followed by plating on SD agar plate; assay type: functional; conditions: read-out: MFC99.9
[12] = tested on: Candida albicans; assay: Antifungal activity against Candida albicans isolate 10 assessed as reduction in fungal growth incubated for 48 hrs by broth microdilution method; assay type: functional
[13] = tested on: Candida albicans; assay: Fungicidal activity against Candida albicans isolate 12 assessed as fungal killing incubated for 48 hrs followed by plating on SD agar plate; assay type: functional; conditions: read-out: MFC99.9
[14] = tested on: Candida albicans; assay: Antifungal activity against Candida albicans isolate 5 assessed as reduction in fungal growth incubated for 48 hrs by broth microdilution method; assay type: functional
[15] = tested on: Candida albicans; assay: Fungicidal activity against Candida albicans isolate 6 assessed as fungal killing incubated for 48 hrs followed by plating on SD agar plate; assay type: functional; conditions: read-out: MFC99.9
[16] = tested on: Candida albicans; assay: Fungicidal activity against Candida albicans isolate 9 assessed as fungal killing incubated for 48 hrs followed by plating on SD agar plate; assay type: functional; conditions: read-out: MFC99.9
[17] = tested on: Candida albicans; assay: Fungicidal activity against Candida albicans isolate 4 assessed as fungal killing incubated for 48 hrs followed by plating on SD agar plate; assay type: functional; conditions: read-out: MFC99.9
[18] = tested on: Candida albicans; assay: Antifungal activity against Candida albicans isolate 4 assessed as reduction in fungal growth incubated for 48 hrs by broth microdilution method; assay type: functional
[19] = tested on: Candida albicans; assay: Antifungal activity against Candida albicans ATCC 18804 assessed as reduction in fungal growth incubated for 48 hrs by broth microdilution method; assay type: functional
[20] = tested on: Candida albicans; assay: Antifungal activity against Candida albicans isolate 11 assessed as reduction in fungal growth incubated for 48 hrs by broth microdilution method; assay type: functional
[21] = tested on: Pichia kudriavzevii; assay: Antifungal activity against Candida krusei ATCC 34135 assessed as reduction in fungal growth incubated for 48 hrs by broth microdilution method; assay type: functional
[22] = tested on: Candida albicans; assay: Antifungal activity against Candida albicans ATCC 10231 assessed as inhibition of yeast to hypha morphological transition at 125 ug/ml measured upto 72 hrs by microscopic analysis; assay type: functional, organism-based; conditions: dose 125.0 µg/ml, time hrs <=72
[23] = tested on: Candida albicans; assay: Antifungal activity against Candida albicans isolate 13 assessed as reduction in fungal growth incubated for 48 hrs by broth microdilution method; assay type: functional
[24] = tested on: Candida albicans; assay: Fungicidal activity against Candida albicans isolate 8 assessed as fungal killing incubated for 48 hrs followed by plating on SD agar plate; assay type: functional; conditions: read-out: MFC99.9
[25] = tested on: Candida tropicalis; assay: Fungicidal activity against Candida tropicalis ATCC 28707 assessed as fungal killing incubated for 48 hrs followed by plating on SD agar plate; assay type: functional; conditions: read-out: MFC99.9
[26] = tested on: Candida albicans; assay: Fungicidal activity against Candida albicans ATCC 10231 assessed as reduction in fungal load at 125 ug/ml incubated for 48 hrs followed by inoculation on SD agar plate for 48 hrs by time-kill assay; assay type: functional, organism-based; conditions: dose 125.0 µg/ml, time 96.0 hrs
[27] = tested on: Candida albicans; assay: Antifungal activity against Candida albicans isolate 12 assessed as reduction in fungal growth incubated for 48 hrs by broth microdilution method; assay type: functional
[28] = tested on: Candida albicans; assay: Antifungal activity against Candida albicans ATCC 10231 assessed as reduction in fungal growth incubated for 48 hrs by broth microdilution method; assay type: functional
[29] = tested on: Nakaseomyces glabratus; assay: Fungicidal activity against Candida glabrata ATCC 2001 assessed as fungal killing incubated for 48 hrs followed by plating on SD agar plate; assay type: functional; conditions: read-out: MFC99.9
[30] = tested on: Candida albicans; assay: Antifungal activity against Candida albicans isolate 3 assessed as reduction in fungal growth incubated for 48 hrs by broth microdilution method; assay type: functional
[31] = tested on: Candida tropicalis; assay: Antifungal activity against Candida tropicalis ATCC 28707 assessed as reduction in fungal growth incubated for 48 hrs by broth microdilution method; assay type: functional
[32] = tested on: Candida albicans; assay: Antifungal activity against Candida albicans isolate 7 assessed as reduction in fungal growth incubated for 48 hrs by broth microdilution method; assay type: functional
[33] = tested on: Candida albicans; assay: Antifungal activity against Candida albicans isolate 6 assessed as reduction in fungal growth incubated for 48 hrs by broth microdilution method; assay type: functional
[34] = tested on: Candida albicans; assay: Antifungal activity against Candida albicans isolate 1 assessed as reduction in fungal growth incubated for 48 hrs by broth microdilution method; assay type: functional
[35] = tested on: Candida albicans; assay: Fungicidal activity against Candida albicans isolate 10 assessed as fungal killing incubated for 48 hrs followed by plating on SD agar plate; assay type: functional; conditions: read-out: MFC99.9
[36] = tested on: Pichia kudriavzevii; assay: Antifungal activity against Candida krusei ATCC 34135 assessed as reduction in fungal growth incubated for 48 hrs in presence of sorbitol by broth microdilution method; assay type: functional
[37] = tested on: Candida tropicalis; assay: Antifungal activity against Candida tropicalis ATCC 28707 assessed as reduction in fungal growth incubated for 48 hrs in presence of sorbitol by broth microdilution method; assay type: functional
[38] = tested on: Candida albicans; assay: Antifungal activity against Candida albicans ATCC 10231 assessed as reduction in fungal growth incubated for 48 hrs in presence of sorbitol by broth microdilution method; assay type: functional
[39] = tested on: Nakaseomyces glabratus; assay: Antifungal activity against Candida glabrata ATCC 2001 assessed as reduction in fungal growth incubated for 48 hrs in presence of sorbitol by broth microdilution method; assay type: functional
[40] = tested on: Pichia kudriavzevii; assay: Disruption of cell membrane in Candida krusei ATCC 34135 assessed as increase in intracellular leakage at MIC incubated for 24 hrs by UV spectrophotometric analysis; assay type: cell-based
[41] = tested on: Candida albicans; assay: Antifungal activity against Candida albicans ATCC 10231 assessed as reduction in fungal growth incubated for 48 hrs in presence of ergosterol by broth microdilution method; assay type: functional
[42] = tested on: Nakaseomyces glabratus; assay: Disruption of cell membrane in Candida glabrata ATCC 2001 assessed as increase in intracellular leakage at MIC incubated for 24 hrs by UV spectrophotometric analysis; assay type: cell-based
[43] = tested on: Candida tropicalis; assay: Disruption of cell membrane in Candida tropicalis ATCC 28707 assessed as increase in intracellular leakage at MIC incubated for 24 hrs by UV spectrophotometric analysis; assay type: cell-based
[44] = tested on: Nakaseomyces glabratus; assay: Antifungal activity against Candida glabrata ATCC 2001 assessed as reduction in fungal growth incubated for 48 hrs in presence of ergosterol by broth microdilution method; assay type: functional
[45] = tested on: Candida albicans; assay: Fungicidal activity against Candida albicans ATCC 10231 assessed as reduction in fungal load at 7.8 ug/ml incubated for 36 hrs followed by inoculation on SD agar plate for 48 hrs by time-kill assay; assay type: functional, organism-based; conditions: dose 7.8 µg/ml, time 84.0 hrs
[46] = tested on: Candida albicans; assay: Fungicidal activity against Candida albicans isolate 3 assessed as fungal killing incubated for 48 hrs followed by plating on SD agar plate; assay type: functional; conditions: read-out: MFC99.9
[47] = tested on: Candida albicans; assay: Antibiofilm activity against Candida albicans ATCC 10231 assessed as reduction in biofilm formation at 0.24 to 7.81 ug/ml by crystal violet staining based spectrophotometric analysis; assay type: functional, organism-based; conditions: dose 0.24-7.81 µg/ml
[48] = tested on: Pichia kudriavzevii; assay: Antifungal activity against Candida krusei ATCC 34135 assessed as reduction in fungal growth incubated for 48 hrs in presence of ergosterol by broth microdilution method; assay type: functional
[49] = tested on: Candida albicans; assay: Antibiofilm activity against Candida albicans ATCC 10231 assessed as reduction in mature biofilm at 125 ug/ml incubated for 48 hrs by crystal violet staining based spectrophotometric analysis relative to control; assay type: functional
[50] = tested on: Candida tropicalis; assay: Antifungal activity against Candida tropicalis ATCC 28707 assessed as reduction in fungal growth incubated for 48 hrs in presence of ergosterol by broth microdilution method; assay type: functional
[51] = tested on: Candida albicans; assay: Fungicidal activity against Candida albicans ATCC 10231 assessed as reduction in fungal load at 31.25 ug/ml incubated for 12 hrs followed by inoculation on SD agar plate for 48 hrs by time-kill assay; assay type: functional, organism-based; conditions: dose 31.25 µg/ml, time 60.0 hrs
[52] = tested on: Candida albicans; assay: Fungicidal activity against Candida albicans isolate 1 assessed as fungal killing incubated for 48 hrs followed by plating on SD agar plate; assay type: functional; conditions: read-out: MFC99.9
[53] = tested on: Candida albicans; assay: Disruption of cell membrane in Candida albicans ATCC 10231 assessed as increase in intracellular leakage at MIC incubated for 24 hrs by UV spectrophotometric analysis; assay type: cell-based
[54] = tested on: Candida albicans; assay: Antifungal activity against Candida albicans ATCC 10231 assessed as inhibition of yeast to hypha morphological transition at 15.6 ug/ml measured upto 72 hrs by microscopic analysis; assay type: functional, organism-based; conditions: dose 15.6 µg/ml, time hrs <=72
[55] = tested on: Candida albicans; assay: Fungicidal activity against Candida albicans isolate 5 assessed as fungal killing incubated for 48 hrs followed by plating on SD agar plate; assay type: functional; conditions: read-out: MFC99.9

CC(=O)N1CCN(c2ccc(OCC3COC(Cn4ccnc4)(c4ccc(Cl)cc4Cl)O3)cc2)CC1 (stereo unspecified) [KETOCONAZOLE]
inactive: Activity [26]
7.8 µg/mL: MFC [6] | MFC [11] | MIC [12] | MIC [21] | MFC [24]
500 µg/mL: MFC [13]
1.95 µg/mL: MIC [32]
15.6 µg/mL: MIC [23] | MIC [27]
250 µg/mL: MFC [9] | MFC [16]
> 500 µg/mL: MFC [1] | MIC [14] | MFC [29] | MIC [30] | MIC [34]
active: Activity [22]
3.9 µg/mL: MIC [8] | MFC [15]
125 µg/mL: MFC [2] | MIC [5] | MFC [7] | MFC [10] | MFC [17]
62.3 µg/mL: MIC [3]
62.5 µg/mL: MFC [25] | MFC [35]
31.2 µg/mL: MIC [4] | MIC [18] | MIC [19] | MIC [20] | MIC [28] | MIC [31]
0.97 µg/mL: MIC [33]

CC[C@H](C)C[C@H](C)CCCCCCCCC(=O)N[C@H]1C[C@@H](O)[C@@H](NCCN)NC(=O)[C@@H]2[C@@H](O)CCN2C(=O)[C@H]([C@H](O)CCN)NC(=O)[C@H]([C@H](O)[C@@H](O)c2ccc(O)cc2)NC(=O)[C@@H]2C[C@@H](O)CN2C(=O)[C@H]([C@@H](C)O)NC1=O [CASPOFUNGIN]
0.0625 µg/mL: MIC [21] | MIC [31]
15.6 µg/mL: MIC [38]
0.5 µg/mL: MIC [5]
1 µg/mL: MIC [39]
0.25 µg/mL: MIC [36] | MIC [37]
4 µg/mL: MIC [28]

CCCC[n+]1cccc(CCCOCCCCCCCCCCCCN=[N+]=[N-])c1.[I-]
15.6 µg/mL: MIC [4] | MIC [12] | MIC [44] | MFC [25] | MFC [29] | MIC [33]
1.95 µg/mL: MIC [18]
3.9 µg/mL: MIC [36] | MFC [6] | MIC [8] | MIC [14] | MFC [17] | MFC [46] | MIC [48] | MIC [21] | MIC [30] | MFC [55]
active: Activity [40] | Activity [42] | Activity [43] | Activity [45] | Activity [47] | Activity [51] | Activity [53] | Activity [54]
7.8 µg/mL: MFC [1] | MFC [2] | MIC [3] | MIC [41] | MIC [5] | MIC [37] | MFC [9] | MFC [11] | MIC [38] | MFC [13] | MIC [39] | MIC [19] | MIC [20] | MIC [50] | MIC [23] | MFC [24] | MIC [27] | MIC [28] | MIC [31] | MIC [32] | MIC [34]
125 µg/mL: MFC [10]
62.5 µg/mL: MFC [52]
50%: inhibition at 125 µg/mL [49]
31.2 µg/mL: MFC [7] | MFC [15] | MFC [16] | MFC [35]
